Results: the supplement of paper PMC8372320

test: photocatalytic hydrogen evolution rate (per 5 mg catalyst); higher = more photocatalytic H2 evolution; extreme values may be limits of the assay; details: catalyst mass (mg): 5; Pt cocatalyst (wt%): 3; sacrificial medium: triethylamine/methanol/water 1:1:1
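Also: aromatic molecules in triethylamine/methanol/water with Pt photoreduced in situ, irradiated 3 h under a 1 sun AM 1.5G solar simulator (350–1000 nm), H2 quantified by headspace gas chromatography; listed molecule itself used as the photocatalyst at 5 mg per vial.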

Structure (SMILES) | photocatalytic hydrogen evolution rate [µmol/h]
N#CCc1ccc(B(O)O)cc1 | 0
COc1ccc(Nc2ccc(OC)cc2)cc1 | 0.055
S=C=Nc1cc(Br)ccc1Br | 0
Fc1cc(Br)ccc1Br | 0
N#Cc1ccc(-c2ccc(N)cc2)cc1 | 0
O=Cc1ccc(Br)cn1 | 0
NNC(=O)c1cc(Br)c(O)c(Br)c1 | 0
O=Cc1ccccc1P(c1ccccc1)c1ccccc1 | 0.079
c1ccc(-c2ccc(-c3ccc(-c4ccccc4)cc3)cc2)cc1 | 0
N#Cc1ccc(C#N)c(OC(F)(F)F)c1 | 0.153
Nc1ccc(-c2ccc(N)c(F)c2)cc1F | 0
c1ccc(-c2cc(-c3ccccc3)cc(-c3ccccc3)c2)cc1 | 0.0457
c1csc(-c2ccc(N(c3ccc(-c4cccs4)cc3)c3ccc(-c4cccs4)cc3)cc2)c1 | 0
O=Cc1ccc2nsnc2c1 | 0
OB(O)c1ccc(B(O)O)cc1 | 0.053
Oc1cc2c3cc(O)c(O)cc3c3cc(O)c(O)cc3c2cc1O | 0.155
Nc1cc(C(=O)O)cc(C(=O)O)c1 | 0
N#Cc1cscc1C#N | 0
COC(=O)/C=C/c1ccccc1 | 0
COC(=O)c1ccc(C#N)cc1 | 0
c1ccc2c(c1)Cc1ccccc1-2 | 0
CC1(C)OB(c2ccc3c4ccc(B5OC(C)(C)C(C)(C)O5)cc4n(-c4ccccc4)c3c2)OC1(C)C | 0.0133

Structure (SMILES) | photocatalytic hydrogen evolution rate [µmol/h]
Brc1cccc(Br)n1 | 0
CC1(C)OB(c2ccc3c(c2)[nH]c2ccccc23)OC1(C)C | 0
N#Cc1ccc(Br)c(F)c1 | 0
N#Cc1c(-n2c3ccccc3c3ccccc32)c(-n2c3ccccc3c3ccccc32)c(C#N)c(-n2c3ccccc3c3ccccc32)c1-n1c2ccccc2c2ccccc21 | 1.6
COc1cc(C=O)cc(OC)c1 | 5.78
Cc1cc(C#N)ccc1C#N | 0
COc1ccc(OC)cc1 | 0
COc1cc(Br)cc(OC)c1 | 0.0348
O=C1c2cccc3cccc(c23)C(=O)N1O | 0
Cc1ccc(-c2ccc(C)cc2)cc1 | 0
CC(=O)c1c(O)cccc1O | 0
Brc1cnc(Br)nc1 | 0
Brc1ccc(-c2ccc(Br)cc2)cc1 | 0
CCCCCCCCC1(CCCCCCCC)c2cc(B3OC(C)(C)C(C)(C)O3)ccc2-c2ccc(B3OC(C)(C)C(C)(C)O3)cc21 | 0.0342
N#Cc1ccc(C=O)cc1 | 0.136
N#Cc1cccc(N)c1 | 0
O=Cc1cccc(C=O)c1 | 1.65
N#Cc1cccc(C=O)c1 | 0.204
O=Cc1ccc(Br)nc1 | 0.297
CCN1C(=O)C(=O)c2cc(Br)cc(Br)c21 | 0.105
Nc1cc(Br)c(Br)cc1N | 0
c1ccc(-c2nc(-c3ccccc3)nc(-c3ccc(-c4ccc(-c5nc(-c6ccccc6)nc(-c6ccccc6)n5)cc4)cc3)n2)cc1 | 0

Structure (SMILES) | photocatalytic hydrogen evolution rate [µmol/h]
c1ccc2c(c1)cc1ccc3cccc4ccc2c1c34 | 0.00851
O=C1NC(=O)c2ccc3c4ccc5c6c(ccc(c7ccc1c2c73)c64)C(=O)NC5=O | 0
O=C(/C=C/c1ccccc1)c1ccccc1 | 0.146
c1ccc(-c2ccc(-c3nc(-c4ccc(-c5ccccc5)cc4)nc(-c4ccc(-c5ccccc5)cc4)n3)cc2)cc1 | 0.103
N#Cc1cc(Br)cc(Br)c1O | 0.31
Nc1ccc(-c2ccc(N)c(O)c2)cc1O | 0.104
N#CC1=C(C#N)SC(C#N)=C(C#N)S1 | 0
Cc1c(CBr)c(C)c(CBr)c(C)c1CBr | 0
OC1c2ccccc2-c2ccccc21 | 0
N#Cc1ccc(Br)cc1F | 0
Nc1cccc2c(N)cccc12 | 0
Nc1c(Br)cnc(Cl)c1Br | 0
C#Cc1cc(C(=O)O)cc(C(=O)O)c1 | 0
O=C1Cc2cc(Br)cc(Br)c2N1 | 0
O=C1c2ccccc2-c2ccccc21 | 2.56
N#Cc1ccccc1CBr | 0
O=c1c2ccccc2oc2ccccc12 | 7.48
O=C1OC(=O)c2ccc3c4c(ccc1c24)C(=O)OC3=O | 0.0941
N#Cc1ccc(C=O)s1 | 0.0384
O=Cc1cncnc1 | 0.0364
COc1cc(C=O)c(OC)cc1C=O | 1.37
Nc1ccc(C(=O)O)cc1 | 0.059

Structure (SMILES) | photocatalytic hydrogen evolution rate [µmol/h]
N#Cc1ccc(-c2ccc(N)nc2)cc1 | 0.0826
c1ccc2[nH]ccc2c1 | 0
O=C(O)c1ccc(-c2cc(-c3ccc(C(=O)O)cc3)cc(-c3ccc(C(=O)O)cc3)c2)cc1 | 0.00212
O=Cc1ccc(-c2cncnc2)cc1 | 2.58
N#Cc1c(O)[nH]c(=O)c(C#N)c1-c1ccccc1 | 0
COC(=O)c1ccc(-c2ccc(Br)cc2)cc1 | 0.0357
Cc1cc2c(cc1N)S(=O)(=O)c1cc(N)c(C)cc1-2 | 0
Brc1sc(Br)c(Br)c1Br | 0
CN(C)c1ccncc1 | 0
N#CCc1ccccc1-c1ccccc1CC#N | 0
COc1ccc2c3c(cccc13)C(=O)N(C)C2=O | 1.91
Cn1c2ccccc2c2cc(C=O)ccc21 | 2.49
CCOC(=O)c1ccc(C(=O)OCC)cc1 | 0
N#Cc1ccc(-c2ccccc2)cc1 | 0
O=C(O)Cc1ccccc1 | 0.0603
O=Cc1ccc(Br)cc1 | 0.624
N#Cc1cc(O)cc(C#N)c1 | 2.14
Cc1cc(N)ccc1C#N | 0
Fc1c(F)c(F)c(-c2c(F)c(F)c(F)c(F)c2F)c(F)c1F | 0
N#Cc1cc(C#N)cc(C#N)c1 | 0.00175
Cc1c(O)cccc1O | 0
O=Cc1ccc(C(=O)O)cc1O | 8.19

Structure (SMILES) | photocatalytic hydrogen evolution rate [µmol/h]
Nc1ccc(-c2ccc(-c3ccc(N)cc3)cc2)cc1 | 0
Fc1c(F)c(-c2c(F)c(F)c(Br)c(F)c2F)c(F)c(F)c1Br | 0
N#CCc1ccc(C=O)cc1 | 4.22
O=C(O)c1c2ccccc2c(C(=O)O)c2ccccc12 | 0
CC1(C)OB(c2ccc(N)cc2)OC1(C)C | 0.0761
O=Cc1ccc(/C=C/c2ccccc2)cc1 | 0.017
O=Cc1ccc2c(c1)c1ccccc1n2-c1ccccc1 | 2.51
O=c1oc(=O)c2cc3c(=O)oc(=O)c3cc12 | 0
Cc1cc(C#N)cnc1Br | 0
c1ccc2c(c1)-c1ccccc1C21c2ccccc2-c2ccccc21 | 0
Brc1ccc2c(c1)Cc1cc(Br)ccc1-2 | 0
C#Cc1cnc[nH]1 | 0
O=Cc1cc(O)cc(Cl)c1 | 0.000189
N#Cc1cc(F)c(F)cc1F | 0.0582
N#Cc1ccccc1-c1ccccc1C#N | 0
O=C1CCc2ccccc21 | 0.101
N#Cc1ccc(O)cc1 | 0
O=C(O)c1ccc(C#Cc2cc(C#Cc3ccc(C(=O)O)cc3)cc(C#Cc3ccc(C(=O)O)cc3)c2)cc1 | 0
O=C(C(=O)c1ccccc1)c1ccccc1 | 0.736
N#Cc1ccc(-c2ccc(C#N)cc2)cc1 | 0
